# Measurements published in patent US6800618B2, “Chemosensitizing agents against chloroquine resistant plasmodium falciparum and methods of making and using thereof” (The United States of America as represented by the …, priority 2001, dated 2004).
# Assays:
# [1] = system: Plasmodium falciparum W2 clone; test: FIC index with chloroquine (isobologram analysis) in W2 clone; type: cell-based; set-up: key: 1.0 = additive; <1.0 = synergy; >1.0 = antagonism; conditions: 1:1 combination of drug and chloroquine; chloroquine-resistant W2 clone
# Procedure: In brief, the assay is based on the incorporation of radiolabeled hypoxanthine by the parasites and inhibition of isotope incorporation is attributed to activity of known or candidate antimalarial drugs. For each assay, proven antimalarials, such as chloroquine, mefloquine, quinine, artemisinin, pyrimethamine and sulfadoxine, were used as controls. The incubation period was 66 hours and the starting parasitemia was 0.2% with a 1% hematocrit. […] Albumax may be used instead of 10% normal heat inactivated human plasma.
# (§1) 25 μl of each diluted candidate compound was then transferred to test plates, 200 μl of parasitized erythrocytes (0.2% parasitemia and 1% hematocrit) were added, and incubated at 37° C. in a controlled environment of 5% CO2, 5% O2 and 90% N2. After 42 hours, 25 μl of ^3H-hypoxanthine was added and the plates were incubated for an additional 24 hours. At the end of the 66 hour incubation period, the plates were frozen at −70° C. to lyse the red cells and later thawed and harvested onto glass fiber filter mats by using a 96-well cell harvester. The filter mats were then counted in a scintillation counter and the data was analyzed.
# The FIC is the actual IC50 of one compound in the presence of a second compound but is expressed as a fraction of its IC50 when used alone. This index is a mathematical representation of the isobologram such that an FIC index of 1.0 represents the line of additive on the isobologram. An FIC index of less than 1.0 represents synergy or potentiation and an FIC index of greater than 1.0 represents antagonism.
# In the isobologram graphs as shown in FIGS. 1-3, the x-axis is fractional inhibitory concentration (FIC) of chloroquine and the y-axis is FIC of chemosensitizing agent. The FIC is the actual IC50 of one drug in the presence of the second drug but is expressed as a fraction of its IC50 when used alone. If the isobologram graph is a straight line, it represents an additive effect of the two drugs. If the graph forms a concave curve below the line, it indicates synergy or potentiation of the combination. Below the line means synergy or potentiation and above the line means antagonism.
# RCS = test: FIC index in RCS isolate; type: cell-based, Plasmodium falciparum; set-up: key: 1.0 = additive; <1.0 synergy; >1.0 antagonism; conditions: isolate from Brazil; same method as for W-2
# Procedure: (§2) Fifty percent inhibitory concentrations (IC50s) were determined for each candidate compound alone and for candidate compounds in fixed combinations of their respective IC50s (1:1, 1:3, 3:1). […] See Elion, G. V., et al. (1954) J Biol Chem 208:477-488, which is herein incorporated by reference. The FIC is the actual IC50 of one compound in the presence of a second compound but is expressed as a fraction of its IC50 when used alone. This index is a mathematical representation of the isobologram such that an FIC index of 1.0 represents the line of additive on the isobologram. An FIC index of less than 1.0 represents synergy or potentiation and an FIC index of greater than 1.0 represents antagonism.
# (§3) Parasites from different regions responded differently to the compounds of the present invention. The same assay method described above for W-2 was used except that the strains used were isolated from Thailand, Brazil, and Peru, respectively.
# TM91C235 cells = test: In vitro reversal activity (cell growth suppression, 3H-hypoxanthine incorporation) in TM91C235 cells; type: cell-based, Plasmodium falciparum; conditions: for Control % sup: test compounds only; for restoring the drug sensitivity of the mefloquine resistant cell line: coadministration with mefloquine
# Excerpt: For quantitative in vitro drug susceptibility testing, two well characterized P. falciparum clones, W2 and D6, were used. See Oduola et al. (1988) Exp Parasitol 66:86-95, which is herein incorporated by reference. W2 is a clone of the Indochina I isolate and is resistant to chloroquine and pyrimethamine, but susceptible to mefloquine. D6 is a clone from the Sierra I/UNC isolate and is susceptible to chloroquine and pyrimethamine, but has reduced susceptibilities to mefloquine and halofantrine. TM91C235 was isolates from Thailand and is highly resistant to mefloquine, chloroquine, and quinine.
# The in vitro antimalarial drug susceptibility assay used is a modification of the procedures first published by Desjardins, et al. with modifications developed by Milhous, et al. See Desjardins, R. E., et al. (1979) Antimicrobial Agents Chemother 16:710-718; and Milhous, et al. (1985) Antimicrobial Agents Chemother 27:525-530, which are herein incorporated by reference. In brief, the assay is based on the incorporation of radiolabeled hypoxanthine by the parasites and inhibition of isotope incorporation is attributed to activity of known or candidate antimalarial drugs. For each assay, proven antimalarials, such as chloroquine, mefloquine, quinine, artemisinin, pyrimethamine and sulfadoxine, were used as controls. The incubation period was 66 hours and the starting parasitemia was 0.2% with a 1% hematocrit. The media used was RPMI-1640 culture media with no folate or p-aminobenzoic acid (PABA). Albumax may be used instead of 10% normal heat inactivated human plasma.
# If a candidate compound was tested without any prior knowledge of its activity or solubility, the compound was dissolved directly in dimethylsulfoxide (DMSO) and diluted 400 fold with complete culture media. These unknown compounds were normally started at a highest concentration of about 50,000 ng/ml. The compounds were then diluted 2-fold, 11 times, to give a concentration range of about 1,048-fold. These dilutions were performed automatically by a Biomek 1000 or 2000 Liquid Handling System into 96-well microtiter plates.
# as §1
# Each of these test compounds were tested under three different concentrations, 5000, 500, and 50 ng/ml, in the presence of 10 ng/ml of chloroquine and 5 ng/ml of mefloquine. […] Thus, the compounds of the present invention may be used to treat, prevent or inhibit drug resistant malaria.
# TM91C235 = test: FIC index in TM91C235 isolate; type: cell-based, Plasmodium falciparum; set-up: key: 1.0 = additive; <1.0 = synergy; >1.0 = antagonism; conditions: isolate from Southeast Asia (Thailand); same method as for W-2
# Procedure: Fifty percent inhibitory concentrations (IC50s) were determined for each candidate compound alone and for candidate compounds in fixed combinations of their respective IC50s (1:1, 1:3, 3:1). […] The FIC is the actual IC50 of one compound in the presence of a second compound but is expressed as a fraction of its IC50 when used alone. This index is a mathematical representation of the isobologram such that an FIC index of 1.0 represents the line of additive on the isobologram. An FIC index of less than 1.0 represents synergy or potentiation and an FIC index of greater than 1.0 represents antagonism.
# The same assay method described above for W-2 was used except that the strains used were isolated from Thailand, Brazil, and Peru, respectively.
# Peruvian PC49 = test: FIC index in Peruvian PC49 isolate; type: cell-based, Plasmodium falciparum; set-up: key: 1.0 = additive; <1.0 synergy; >1.0 antagonism; conditions: isolate from South America (Peru); same method as for W-2
# Procedure: as §2, §3
# [2] = test compound 50 ng/ml combined with 5 ng/ml mefloquine
# [3] = test compound 50 ng/ml combined with 10 ng/ml chloroquine
# [4] = test compound 500 ng/ml combined with 5 ng/ml mefloquine
# [5] = test compound 500 ng/ml combined with 10 ng/ml chloroquine
# [6] = test compound 5000 ng/ml combined with 5 ng/ml mefloquine
# [7] = test compound 5000 ng/ml combined with 10 ng/ml chloroquine
compound,measurement,setting,value
"CN(C)CCCCN1c2ccccc2Sc2ccccc21 [7a, 10-(4-Dimethylaminobutyl)phenothiazine]",FIC (fractional inhibitory concentration) index,[1],0.23
same,FIC index RCS,RCS,0.51
same,Mefloquine % SUP,TM91C235 cells; [2],2%
same,Chloroquine % sup,TM91C235 cells; [3],30%
same,Mefloquine % SUP,TM91C235 cells; [4],31%
same,Chloroquine % sup,TM91C235 cells; [5],97%
same,Mefloquine % SUP,TM91C235 cells; [6],92%
same,Chloroquine % sup,TM91C235 cells; [7],100%
same,Control % sup,TM91C235 cells; 50 ng/ml,17%
same,Control % sup,TM91C235 cells; 500 ng/ml,27%
same,Control % sup,TM91C235 cells; 5000 ng/ml,92%
same,FIC index TM91C235,TM91C235,0.28
"Cc1ccc(CNCCCCN2c3ccccc3Sc3ccccc32)cc1 [7c, 10-(4-Methylbenzylaminobutyl)phenothiazine]",restoring the drug sensitivity of the mefloquine resistant cell line,TM91C235 cells,not very active
same,Mefloquine % SUP,TM91C235 cells; [2],0%
same,Chloroquine % sup,TM91C235 cells; [3],14%
same,Mefloquine % SUP,TM91C235 cells; [4],0%
same,Chloroquine % sup,TM91C235 cells; [5],27%
same,Mefloquine % SUP,TM91C235 cells; [6],13%
same,Chloroquine % sup,TM91C235 cells; [7],62%
same,Control % sup,TM91C235 cells; 50 ng/ml,13%
same,Control % sup,TM91C235 cells; 500 ng/ml,18%
same,Control % sup,TM91C235 cells; 5000 ng/ml,35%
"c1ccc(CN(CCCCN2c3ccccc3Sc3ccccc32)Cc2ccccc2)cc1 [7d, 10-(4-Dibenzylaminobutyl)phenothiazine]",restoring the drug sensitivity of the mefloquine resistant cell line,TM91C235 cells,not very active
same,Mefloquine % SUP,TM91C235 cells; [2],0%
same,Chloroquine % sup,TM91C235 cells; [3],12%
same,Mefloquine % SUP,TM91C235 cells; [4],3%
same,Chloroquine % sup,TM91C235 cells; [5],16%
same,Mefloquine % SUP,TM91C235 cells; [6],9%
same,Chloroquine % sup,TM91C235 cells; [7],25%
same,Control % sup,TM91C235 cells; 50 ng/ml,7%
same,Control % sup,TM91C235 cells; 500 ng/ml,10%
same,Control % sup,TM91C235 cells; 5000 ng/ml,22%
"c1ccc2c(c1)Sc1ccccc1N2CCCCN1CCCCC1 [7f, 10-(4-Piperidin-1-yl-butyl)phenothiazine]",FIC index Peruvian PC49,Peruvian PC49,0.83
same,FIC (fractional inhibitory concentration) index,[1],0.49
same,FIC index RCS,RCS,0.68
same,FIC index TM91C235,TM91C235,0.52
"c1ccc2c(c1)Sc1ccccc1N2CCCCN1CCOCC1 [7g, 10-(4-Morpholin-4-yl-butyl)phenothiazine]",FIC index Peruvian PC49,Peruvian PC49,0.81
same,FIC (fractional inhibitory concentration) index,[1],0.39
same,FIC index RCS,RCS,0.37
same,FIC index TM91C235,TM91C235,0.32
"CN1CCN(CCCCN2c3ccccc3Sc3ccccc32)CC1 [7h, 10-[4-(4-Methyl-piperazin-1-yl)-butyl]phenothiazine]",FIC index Peruvian PC49,Peruvian PC49,0.98
same,FIC (fractional inhibitory concentration) index,[1],0.4
same,FIC index RCS,RCS,0.49
same,FIC index TM91C235,TM91C235,0.48
"Cc1ccc(CNCCCCN2c3ccccc3CCc3ccccc32)cc1 [7k, 5-(4-Methylbenzylaminobutyl)iminodibenzyl]",Mefloquine % SUP,TM91C235 cells; [2],20%
same,Chloroquine % sup,TM91C235 cells; [3],10%
same,Mefloquine % SUP,TM91C235 cells; [4],22%
same,Chloroquine % sup,TM91C235 cells; [5],20%
same,Mefloquine % SUP,TM91C235 cells; [6],41%
same,Chloroquine % sup,TM91C235 cells; [7],33%
same,Control % sup,TM91C235 cells; 50 ng/ml,30%
same,Control % sup,TM91C235 cells; 500 ng/ml,32%
same,Control % sup,TM91C235 cells; 5000 ng/ml,60%
"c1ccc(CN(CCCCN2c3ccccc3CCc3ccccc32)Cc2ccccc2)cc1 [7l, 5-(4-Dibenzylaminobutyl)iminodibenzyl]",Mefloquine % SUP,TM91C235 cells; [2],14%
same,Chloroquine % sup,TM91C235 cells; [3],6%
same,Mefloquine % SUP,TM91C235 cells; [4],22%
same,Chloroquine % sup,TM91C235 cells; [5],8%
same,Mefloquine % SUP,TM91C235 cells; [6],19%
same,Chloroquine % sup,TM91C235 cells; [7],13%
same,Control % sup,TM91C235 cells; 50 ng/ml,11%
same,Control % sup,TM91C235 cells; 500 ng/ml,17%
same,Control % sup,TM91C235 cells; 5000 ng/ml,13%
"c1ccc2c(c1)CCc1ccccc1N2CCCCN1CCCCC1 [7n, 5-(4-Piperidin-1-yl-butyl) iminodibenzyl]",FIC index Peruvian PC49,Peruvian PC49,0.73
same,FIC (fractional inhibitory concentration) index,[1],0.45
same,FIC index RCS,RCS,0.36
same,FIC index TM91C235,TM91C235,0.54
"c1ccc2c(c1)CCc1ccccc1N2CCCCN1CCOCC1 [7o, 5-(4-Morpholin-4-yl-butyl)iminodibenzyl]",FIC index Peruvian PC49,Peruvian PC49,0.78
same,FIC (fractional inhibitory concentration) index,[1],0.31
same,FIC index RCS,RCS,0.89
same,FIC index TM91C235,TM91C235,0.54
"CN1CCN(CCCCN2c3ccccc3CCc3ccccc32)CC1 [7p, 5-[4-(4-Methyl-piperazin-1-yl)-butyl]iminodibenzyl]",FIC (fractional inhibitory concentration) index,[1],0.52
same,FIC index RCS,RCS,0.66
same,FIC index TM91C235,TM91C235,0.54
"CCN(CC)CCCCN(c1ccccc1)c1ccccc1 [7s, N,N-Diethyl-N′,N′-diphenyl-butane-1,4-diamine]",FIC (fractional inhibitory concentration) index,[1],0.48
same,FIC index RCS,RCS,0.33
same,FIC index TM91C235,TM91C235,0.3
"c1ccc(N(CCCCN2CCCC2)c2ccccc2)cc1 [7t, Diphenyl-(4-pyrrolidin-1-yl-butyl)amine]",FIC (fractional inhibitory concentration) index,[1],0.45
same,FIC index RCS,RCS,0.37
same,FIC index TM91C235,TM91C235,0.32
"CCN(CC)CCCCCN1c2ccccc2CCc2ccccc21 [7u, 5-(5-Diethylaminopentyl)iminodibenzyl]",FIC index Peruvian PC49,Peruvian PC49,0.82
same,FIC (fractional inhibitory concentration) index,[1],0.44
same,FIC index RCS,RCS,0.36
same,FIC index TM91C235,TM91C235,0.48
"CCN(CC)CCCCCCN1c2ccccc2CCc2ccccc21 [7w, 5-(6-Diethylaminohexyl)iminodibenzyl]",FIC (fractional inhibitory concentration) index,[1],0.48
same,FIC index RCS,RCS,0.72
same,FIC index TM91C235,TM91C235,0.59
CCN(CC)CCCC(C)Nc1ccnc2cc(Cl)ccc12 (stereo not shown) [chloroquine],cell growth inhibition of TM91C235 cells by drug alone,TM91C235 cells; 10 ng/ml of chloroquine alone,did not inhibit the cell growth
"OC(c1cc(C(F)(F)F)nc2c(C(F)(F)F)cccc12)C1CCCCN1 (stereo not shown) [mefloquine, reference compound]",cell growth inhibition of TM91C235 cells by drug alone,TM91C235 cells; 5 ng/ml of mefloquine alone,did not inhibit the cell growth
